Results: ChEMBL document CHEMBL5370598, “[3H]UR-JG102-A Radiolabeled Cyclic Peptide with High Affinity and Excellent Selectivity for the Neuropeptide Y Y4 Receptor” (J Med Chem, 2023)

How the values were obtained:
[1] = biological target: T1, Neuropeptide Y receptor type 4 (Homo sapiens, UniProt P50391); assay: Binding affinity to human Y4R under sodium free condition
[2] = biological target: T1, Neuropeptide Y receptor type 4; assay: Binding affinity to human Y4R under 150 mM sodium condition
[3] = biological target: T1, Neuropeptide Y receptor type 4; assay: (§1) Displacement of [3H]-(9S,12S,15S,19R,E)-4-amino-N-((S)-1-(((S)-1-(((S)-1-amino-3-(4-hydroxyphenyl)-1-oxopropan-2-yl)amino)-5-guanidino-1-oxopentan-2-yl)amino)-4-methyl-1-oxopentan-2-yl)-15-(3-guanidinopropyl)-12-(4-hydroxybenzyl)-2,11,14,17,20-pentaoxo-19-(4-(propanamido-2,3-t2)butanamido)-1,3,5,10,13,16,21-heptaazacyclopentacos-3-ene-9-carboxamide from human Y4R expressed in CHO cells coexpressing Gqi5-mtAEQ under isotonic sodium containing buffer condition; format: cell-based; details: read-out: Ki
[4] = biological target: T1, Neuropeptide Y receptor type 4; assay: as §1, with “hypotonic” for “isotonic”, “free” for “containing”; format: cell-based

T1 sequence (P50391 whole entry): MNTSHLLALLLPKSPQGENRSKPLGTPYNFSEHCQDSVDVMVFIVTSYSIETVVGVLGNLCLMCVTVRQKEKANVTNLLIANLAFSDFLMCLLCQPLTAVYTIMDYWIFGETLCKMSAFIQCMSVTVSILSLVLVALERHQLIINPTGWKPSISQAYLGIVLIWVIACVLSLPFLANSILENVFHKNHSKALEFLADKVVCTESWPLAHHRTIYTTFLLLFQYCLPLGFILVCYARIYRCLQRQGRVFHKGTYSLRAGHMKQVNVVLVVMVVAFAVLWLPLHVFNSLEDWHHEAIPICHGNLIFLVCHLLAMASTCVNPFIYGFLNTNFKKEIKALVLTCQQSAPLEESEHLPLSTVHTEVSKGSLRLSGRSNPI

SMILES | Kd [1] | Kd [2] | Ki [3] | Ki ([4]; read-out: Ki) | Ki ([4]; read-out: pKi (converted))
[3H]CC([3H])C(=O)NCCCC[C@H](NC(=O)[C@H](CC(C)C)NC(=O)[C@@H]1CCCN1C(=O)[C@H](C)N)C(=O)N1CCC[C@H]1C(=O)N[C@H](C(=O)N[C@@H](Cc1ccc(O)cc1)C(=O)N1CCC[C@H]1C(=O)NCC(=O)N[C@@H](CC(=O)O)C(=O)N[C@@H](CC(N)=O)C(=O)N[C@@H](C)C(=O)N[C@H](C(=O)N1CCC[C@H]1C(=O)N[C@@H](CCC(=O)O)C(=O)N[C@@H](CCC(N)=O)C(=O)NC(CCCC)C(=O)N[C@@H](C)C(=O)N[C@@H](CCC(N)=O)C(=O)N[C@@H](Cc1ccc(O)cc1)C(=O)N[C@@H](C)C(=O)N[C@@H](C)C(=O)N[C@@H](CC(N)=O)C(=O)N[C@@H](CC(C)C)C(=O)N[C@@H](CCCNC(=N)N)C(=O)N[C@@H](CCCNC(=N)N)C(=O)N[C@@H](Cc1ccc(O)cc1)C(=O)N[C@H](C(=O)N[C@@H](CC(N)=O)C(=O)NC(CCCC)C(=O)N[C@@H](CC(C)C)C(=O)N[C@H](C(=O)N[C@@H](CCCNC(=N)N)C(=O)N1CCC[C@H]1C(=O)N[C@@H](CCCNC(=N)N)C(=O)N[C@@H](Cc1ccc(O)cc1)C(N)=O)[C@@H](C)O)[C@@H](C)CC)[C@@H](C)O)C(C)C (stereo partly specified) | 1.1 nM | 20.9 nM |  |  | 
[3H]CC([3H])C(=O)NCCCCNC(=O)/N=C(\N)NCCCC[C@H](NC(=O)[C@H](Cc1ccc(O)cc1)NC(=O)CCCCCCC(=O)N[C@@H](Cc1ccc(O)cc1)C(=O)N[C@@H](CCCNC(=N)N)C(=O)N[C@@H](CC(C)C)C(=O)N[C@@H](CCCNC(=N)N)C(=O)N[C@@H](Cc1ccc(O)cc1)C(N)=O)C(=O)N[C@@H](CC(C)C)C(=O)N[C@@H](CCCNC(=N)N)C(=O)N[C@@H](Cc1ccc(O)cc1)C(N)=O (stereo partly specified) | 0.67 nM |  | 6.7 nM | 0.41 nM | 0.209 nM
